Test results as given in patent US12264185B2, “Stabilized BCL9 peptides for treatment of aberrant Wnt signaling” (WntRx Pharmaceuticals Inc., priority 2015, dated 2025).
Several values for one entry are separate records, joined by “and”; a condition that tells them apart may be missing. Equal entries are not always repeated. Bridge positions count the residues as written; N and C are the ends. Square brackets hold non-standard residues; d marks the D form. Peptide text beside a SMILES is read from it. 2Nal = N[C@@H](Cc1ccc2ccccc2c1)C(=O)O; R5 = C=CCCC[C@@](C)(N)C(=O)O; S5 = C=CCCC[C@](C)(N)C(=O)O; βAla = NCCC(=O)O

Legend:
[1] = test system: Colo320DM cells; test: cells; conditions: Colo320DM cells
Description: Colo320DM cells were selected for this assay as the proliferation of this particular cell line is dependent on BCL9 and β-catenin. ICG001, a known Wnt/β-catenin small molecule inhibitor, was used as a positive control. The cell viability at each treatment condition was analyzed using CellTiterGlo luminescent cell viability assay (Promega) according to the manufacturer's protocols.
Following the procedure described in Example 2, the ability of WX-035 to inhibit cell growth was tested in a cell viability assay using Colo320DM cells.

[2] = Pharmacokinetics in female balb/c mice; assay type: in vivo; conditions: mouse, plasma, 30 mg/kg intravenous or intraperitoneal
Description: The peptide solution was prepared at the fixed concentration of 0.5 mg/ml, and then suitable amounts were administered according to the dose. The same mixed solvent was used as a vehicle treatment. Blood samples (300 IA) were collected periodically from the retro-orbital vein at 0.25, 1, 2, 4, 6, 7, 12, and 24-hours post-dose (and 36 and 48 hours post-dose for intramuscular, subcutaneous, and intraperitoneal routes), followed by plasma separation for pending bioanalysis by LC-MS/MS. Standard PK parameters were calculated by non-compartmental analysis modules in WinNonlin Professional (v5.2, Pharsight, FDA-certified).
Two different administration routes, intravenous or intraperitoneal, were compared using 30 mg/kg WX-035. […] As observed with male ICR mice, the half-life of WX-035 in this experiment was more than 9 hours.

[3] = test system: CT26 cells; test: CT26 syngeneic mouse model of colon cancer (Balb/c); assay type: in vivo, mice
Description: The syngeneic mouse model of colon cancer using CT26 was then assessed. Male Balb/c mice were injected subcutaneously in the right flank with 5×10^4 CT26 cells each at approximately 5 weeks of age. […] Eight mice were included in each treatment group.
The whole blood was taken from each mouse. Lymphocytes were purified from the blood samples by Ficoll, and the cells were stained with fluorescent anti-CD4 antibody. Data were measured by flow cytometry.
As described above, the whole blood was taken from each mouse. Lymphocytes were purified from blood by Ficoll, and the cells were stained with fluorescent anti-CD8 antibody. Data were measured by flow cytometry.
To further assess whether WX-024 is capable of modulating a tumor microenvironment, tumor and blood samples were collected in anticoagulation tubes at the end of the study. Single cells separation was performed and then cells were stained for FACS analysis. For cell surface staining, CD45-PerCP-Cy5, CD4-FITC, CD8-PE-Cy7, and CD25-PE were used. For intranuclear staining, cells were permeabilized overnight and then stained with Foxp3-APC for 60 minutes.
The in vivo efficacy of WX-035 in treating a cancer was assessed in a syngeneic mouse model, following the procedures described in Example 5.3. Trametinib, a known MEK inhibitor, was used as a comparison. Briefly, balb/c mice were inoculated with CT26 and treatment started when tumor volume reached to about 100 mm^3. The mice were then divided into three groups and began administered with a vehicle, 40 mg/kg WX-035, or 1 mg/kg trametinib for 7 consecutive days.
At the end of the study described in Example 9.2, a tumor sample from each mouse was collected to assess the effect of WX-035 in modulating T cell activation. The FACS analysis of each tumor sample was performed following the procedure described in Example 5. A shown in FIG. 36A, treatment with WX-035 reduced the total amount of CD45^+ cells. […] Likewise, Foxp3^+ CD25^+ T cells were reduced by WX-035 treatment (FIG. 36C). […] Furthermore, by increasing the ratio of cytotoxic T cells over regulatory T cells, WX-035 may induce a microenvironment that favors an immune reaction beneficial for tumor treatment. Of note, the samples collected from this experiment were also assessed for LGR5 expression.

[4] = Toxicity study of WX-035 in balb/c nude mice (H&E of major organs); assay type: in vivo; conditions: 30 mg/kg or 40 mg/kg i.v., 7 consecutive days
Description: To assess the toxicity effect of WX-035, balb/c nude mice were administered with a vehicle, or 30 mg/kg, or 40 mg/kg WX-035, following the procedure described in Example 5.6. At the end of the study, the mice were sacrificed and major organs were harvested for H&E staining.

[5] = test system: CT26.WT cells; assay type: cell-based
Description: One of the stabilized polypeptides generated in Example 10 was tested in a cell viability assay and compared against WX-035. WX-037 was selected for this comparison study. The cell viability assay was performed with CT26.WT cells (ATCC), following the procedures described in Example 2. Briefly, 4000 cells per well of each plate were seeded with 50 μL opti-MEM medium. Each polypeptide, WX-035 or WX-037, was diluted with 2% FBS containing opti-MEM medium using 1 μL of 200× concentrated polypeptide in 99 μL of the medium. Each stock solution was diluted for testing a wide range of concentrations. 50 μL of 2× concentrated polypeptide was added to each well of the plate. Three days after the polypeptide addition, the viability of cells was measured using CellTiterGlo assay, according to the manufacturer's protocol.

[6] = FIG. 33B
Description: Table printed on a drawing sheet, FIG. 33B
The patent's description of the figure: FIG. 33A and FIG. 33B show PK data for WX-035 administered to male ICR mice (an outbred strain). The mice were treated with either 1 mg/kg, or 5 mg/kg WX-035 intravenously or 5 mg/kg WX-035 intraperitoneally.
First reader's note: Plasma PK parameters by route and dose; according to the description the animals are male ICR mice.

[7] = FIG. 34B
Description: Table printed on a drawing sheet, FIG. 34B
The patent's description of the figure: FIG. 34A and FIG. 34B show PK data for WX-035 administered to female balb/c mice (n=3). The mice were either intravenously or intraperitoneally administered with 30 mg/kg WX-035. Blood samples from each mouse were collected at 5 min, 15 min, 30 min, 1, 2, 4, 6, 8, 12, 24, 36, 48, and 72 hours post administration.
First reader's note: Substance, dose (30 mg/kg IV and IP) and species (female Balb/c nude mice, N=3) are printed in the title of FIG. 34A on the same sheet; the label F is printed once, between the mIL/min/kg row and the % row, so the mIL/min/kg row may in fact belong to CL.

[8] = Pharmacokinetics in male ICR mice; conditions: mouse, plasma, 5 mg/kg
Description: The tail vein was used for i.v. injections. […] Following injections, blood samples were obtained via the retro-orbital vein at 5 min, 1, 2, 4, 6, 8, 12, and 24 hours postdose. Plasma was obtained from the blood samples following mixing with sodium heparin and centrifugation.
LC analysis was done using an Agilent 100 HPLC. MS analysis was done using an AB Sciex API 4000. Calibration standards were prepared by serial dilution.
The maximum observed concentration (Cmax), terminal half-life (T1/2), total body clearance (CL), volume of distribution (Vz), area under the curve from the time of dosing to the last measurable concentration (AUC0-t), area under the curve from the time of dosing extrapolated to infinity (AUC0-inf), and bioavailability were calculated using noncompartmental analysis modules in the FDA-certified pharmacokinetic program WinNonlin Professional v5.2 (Pharsight).
Briefly, the mice were administered 1 mg/kg or 5 mg/kg intravenously, or 5 mg/kg intraperitoneally. Blood samples were collected at 15 min, 1, 2, 3, 6, 8, 12, and 24 hours post administration.

[9] = test system: B16F10 cells; test: B16F10 syngeneic model in C57BL/6 mice; assay type: in vivo; conditions: 12 days
Description: C57BL/6 mice were inoculated with B16F10 cells. Female C57BL/6 mice aged 4-5 weeks were inoculated with B16F10 cells (2×10^5 cells in 0.05 ml per mouse) in the right flank. When the average tumor size of the mice reached 100 mm^3, the mice were divided into two groups (N=6). […] The treatment was intraperitoneally administered daily for 14 consecutive days.
The treatment was intraperitoneally administered daily for 12 consecutive days. At the end of the treatment, the mice were sacrificed and tumor and blood samples were collected in anticoagulation tubes. Single cell separation was performed for each sample and then stained for FACS analysis. For cell surface staining, CD45-PerCP-Cy5, CD4-FITC, CD8-PE-Cy7, and CD25-PE were used. The tumor samples were then stained with either an anti-CD4 antibody or an anti-CD8 antibody to assess the presence of T cells in the tumor samples. The tumor samples were also stained with an anti-CD194 antibody and anti-CD196 antibody to assess the presence of T helper 17 cells in the tumor samples.
The process of constructing WX-039 is described in Example 10. C57BL/6 mice were inoculated with B16F10 cells. […] The treatment was intraperitoneally administered daily for 12 consecutive days. At the end of the treatment, the mice were sacrificed and tumor and blood samples were collected in anticoagulation tubes. Tumor cells collected from the experiment were stained as described above and also with anti-CD205 antibody to assess whether WX compounds are capable of modulating dendritic cells.
The ability of WX-039 to suppress tumor growth was assessed in the animal model described in Example 5.4. Briefly, C57BL/6 mice were inoculated with B16 cells. Female C57BL/6 mice aged 5 weeks were inoculated with B16F10 cells (2×10^5 cells in 0.05 ml per mouse) in the right flank. When the average tumor size of the mice reached 100 mm^3, the mice were divided into two groups (N=3). The first group was administered 60 mg/kg WX-039 while the second group was treated with a vehicle. The treatment was intraperitoneally administered daily for 12 consecutive days.

[10] = Pharmacokinetics in female balb/c nude mice; assay type: in vivo; conditions: mouse, plasma, sc, 10 mg/kg subcutaneously
Description: The pharmacokinetic profiles of the four additional polypeptides constructed in Example 10 were assessed following the procedures described in Example 5.1. WX-029 and WX-036 were administered 1 mg/kg intravenously to female balb/c nude mice. Blood samples were collected at 15 min, 1, 2, and 4 hours post administration. FIG. 39A and FIG. 39B summarize the plasma concentration and the pharmacokinetic profiles calculated for WX-029. FIG. 40A and FIG. 40B summarize the plasma concentration and the pharmacokinetic profiles calculated for WX-036.
Similarly, WX-039 and WX-040 were also tested in female balb/c nude mice and assessed for their pharmacokinetic profiles. WX-039 was administered at 5 mg/kg intravenously, 5 mg/kg intraperitoneally, or 10 mg/kg subcutaneously. WX-040 was administered at 30 mg/kg intravenously or 30 mg/kg intraperitoneally. Blood samples were collected at 15 min, 1, 2, 4, 8, 24, 36, 48, and 72 hours post administration. FIG. 41A and FIG. 41B summarize the plasma concentration and the pharmacokinetic profiles calculated for WX-039. FIG. 42A and FIG. 42B summarize the plasma concentration and the pharmacokinetic profiles calculated for WX-040.

[11] = 20 mg/kg WX-024 or 60 mg/kg WX-039 i.p. daily

CC[C@H](C)[C@@H]1NC(=O)[C@@](C)(NC(=O)[C@H](CCCNC(=N)N)NC(=O)[C@H](CC(C)C)NC(=O)[C@]2(C)CCCC=CCCC[C@@](C)(NC(C)=O)C(=O)N[C@@H](CC(C)C)C(=O)N[C@@H](CCC(N)=O)C(=O)N2)CCCC=CCCC[C@@](C)(C(=O)N[C@@H](CC(C)C)C(=O)N[C@@H](Cc2ccc3ccccc3c2)C(=O)NCCC(=O)NCCC(N)=O)NC(=O)[C@H](CCCNC(=N)N)NC(=O)[C@H](CCC(N)=O)NC1=O [WX-035, Xaa1LQXaa2LRXaa3IQRXaa4L] (Ac-[R5]LQ[S5]LR[S5]IQR[S5]L[2Nal][βAla][βAla]-NH2; staple 1-4, 7-11)
effect on cell viability / cell growth [1]: improved IC50 value as compared to WX-024
half-life [2]: > 9 h
Foxp3+ CD25+ T cells in tumor ([3]; WX-035, 7 days): reduced
LGR5 expression in intestine samples ([3]; WX-035, 7 days): reduced
total amount of CD4+ or CD8+ T cells in tumor ([3]; WX-035, 7 days): reduced
total amount of CD45+ cells in tumor ([3]; WX-035, 7 days): reduced
ratio between cytotoxic T cells (CD8+) and Foxp3+ regulatory T cells ([3]; WX-035, 7 days, vs vehicle): increased
average tumor growth inhibition ([3]; WX-035 i.p. for 7 consecutive days, day 7 / end of study): 88.44%
H&E staining of major organs [4]: did not cause any significant abnormality to major organs
IC50 [5]: 1860 nM
F | % [6]: 72%
AUCINF | [7]: 996.181 µg·h/mL and 997.708 µg·h/mL
AUClast | [7]: 987.148 µg·h/mL and 996.029 µg·h/mL
CL | [7]: 0.502 mL/min/kg
CMAX | [7]: 102393 ng/mL
MRTINF | hr [7]: 5.50 h
TERMINAL t1/2 | hr [7]: 9.81 h and 7.03 h
TMAX | hr [7]: 2.00 h
Vss | [7]: 0.166 L/kg
half-life [8]: > 4 h

CC[C@H](C)[C@@H]1NC(=O)[C@@](C)(NC(=O)[C@H](CCCNC(=N)N)NC(=O)[C@H](CC(C)C)NC(=O)[C@]2(C)CCCC=CCCC[C@@](C)(NC(=O)[C@H](CCCNC(=N)N)NC(C)=O)C(=O)N[C@@H](CC(C)C)C(=O)N[C@@H](CCC(N)=O)C(=O)N2)CCCC=CCCC[C@@](C)(C(=O)N[C@@H](CC(C)C)C(=O)N[C@@H](Cc2ccc3ccccc3c2)C(=O)NCCC(=O)NCCC(N)=O)NC(=O)[C@H](CCCNC(=N)N)NC(=O)[C@H](CCC(N)=O)NC1=O [WX-039, RXaa1LQXaa2LRXaa3IQRXaa4L] (Ac-R[R5]LQ[S5]LR[S5]IQR[S5]L[2Nal][βAla][βAla]-NH2; staple 2-5, 8-12)
T helper 17 cells in tumor [9, 11]: increased
dendritic cells (CD205+) in tumor [9, 11]: capable of suppressing dendritic cells present in tumor
body weight change ([9]; 60 mg/kg i.p. daily): no substantial body weight change
tumor growth compared to vehicle ([9]; 60 mg/kg i.p. daily): reduced tumor growth
half-life [10]: ~52 h
